Source: patent US20090298708A1, “2'-DEOXY-2'-FLUORO-BETA-D-ARABINONUCLEOSIDE 5'-TRIPHOSPHATES AND THEIR USE IN ENZYMATIC NUCLEIC ACID SYNTHESIS” (priority 2006, published 2009)

Target: T1, MMLV-RT (Moloney murine leukemia virus, UniProt P03355)
T1 construct: Reverse transcriptases (RT): • MMLV-RT (MMLV or MM; source: Fermentas); purchased Fermentas
Assay: Primer extension assay with MMLV-RT
Type: biochemical
Set-up: key to Incorporation of three 2′F-araTTP / 2′F-araCTP (incorporation efficiency) / Enzymatic activity during primer extension reactions: ++++: excellent (no pausing observed); +++: very good (with slight pausing); ++: Good, full-length products with significant pausing; +: significant pausing, no full-length product but at least one 2′F-araN incorporation detected
Settings: for Enzymatic activity during primer extension reactions: plus dATP, dGTP; for Order of efficiency of incorporation: DNA template PF22 (T/U triphosphates) or PF24 (C triphosphates), three contiguous units; for Incorporation of three 2′F-araTTP / 2′F-araCTP (incorporation efficiency): DNA template PF22 (2′F-araTTP) or PF24 (2′F-araCTP)
Text: Primer extension assays were used to assess the incorporation of 2′F-araNTP on the various DNA templates (Table 1). The DNA primer (PF20) was first radioactively labeled at the 5′-hydroxyl terminus with a radioactive phosphorus probe and the enzyme T4 polynucleotide kinase (T4 PNK) (see Example 1 for General Methods). To assess the incorporation of 2′F-araNTPs, the primer and template were annealed, and the nucleoside 5′-triphosphates added in the presence of enzyme under the conditions specified in Table 2. Time points were obtained by analyzing small aliquots from the reaction mixture through polyacryamide gel electrophoresis (PAGE) and autoradiography.
Primer extension assays were used to assess the incorporation efficiency of contiguous 2′F-ara(T/C)TPs compared to 2′F-r(U/C)TP on a DNA template (e.g. PF22 or PF24). To this end, a DNA template (e.g. PF22: FIGS. 15, 16, 17A, 18, 21A; PF24: FIGS. 17B, 19, 20, 21B), primer and the appropriate NTPs (e.g. combination of dATP/dCTP/dGTP/ and NTP, where N=dT, 2′F-araT, 2′F-rU, or rU (FIGS. 15, 16, 17A, 18, 21A); or combination of dATP/dGTP/dTTP/ and NTP, where N=dC, 2′F-araC, 2′F-rC, or rC (FIGS. 17B, 19, 20, 21B)), were incubated in the presence one of MMLV-RT, 9N, HIV or DV polymerase. The protocols and conditions are described in Example 2 and Table 2.
Unless otherwise noticed in the Examples described below, the conditions used in the primer extension assays, such as dNTP concentration, reaction temperatures, concentration of Mg^2+, and reaction buffers (provided by the manufacturers, except for the HIV buffer which was prepared in-house) are shown in Table 2.
Primer extension assays were used to assess the incorporation of 2′F-araTTP on the DNA template (PF22). The DNA primer (PF20) was first radioactively labeled at the 5′-hydroxyl terminus with a radioactive phosphorus probe and the enzyme T4 polynucleotide kinase (T4 PNK) according to the manufacturer's specifications (MBI Fermentas Life Sciences, Burlington, ON). Incorporation of the ^32P label was accomplished in reaction mixtures consisting of DNA substrate (200 pmol), 2 μl loxreaction buffer (Buffer A for forward reaction: 500 mM Tris-HCl, pH 7.6 at 25° C., 100 mM MgCl2, 50 mM DTT, 1 mM spermidine and 1 mM EDTA), 1 μl T4 PNK enzyme solution (10 U/1 μl in a solution of 20 mM Tris-HCl, pH 7.5, 25 mM KCl, 0.1 mM EDTA, 2 mM DTT and 50% glycerol), 6 μl [γ-^32P]-ATP solution (6000 Ci/mmol, 10 mCi/ml; Amersham Biosciences, Inc.) and autoclaved sterile water to a final volume of 20 μl. The reaction mixture was incubated for about 45-60 min at 37° C., followed by a second incubation for 10 min at 95° C. to heat denature and deactivate the kinase enzyme. The solution was purified according to a standard protocol and the isolated yield of 5′-^32P-DNA following gel extraction averages 50%. The pure labeled samples were kept at −20° C. for future use.
Usually 2 or 3 folds of cold (unlabeled) DNA primer were combined with the radioactive primer. Then primer to template was mixed together with the final concentration at 85 nM for the primer and 255 nM for the template (i.e. the primer:template=1:3 molar ratio). The primer and template were heated at 95° C. for 5 min and annealed at 4° C. for at least two hours before use. In an Eppendorf tube, the following reagents, 5× or 10× buffer, nucleoside 5′-triphosphates (DATP, dGTP, dCTP, 2′F-araTTP at the same concentrations; see legend of FIG. 2), water, the primer and template mixture, were added together according to pre-calculated reaction volume (20 μL) and concentrations (see reaction conditions in Table 2). Mineral oil (20 μL) was usually used to prevent evaporation. The reaction mixture was incubated at either 37° C. or 55° C. and one of the various enzymes tested was added to initiate the primer extension reactions. […]

Row | SMILES | Order of efficiency of incorporation (MMLV-RT, 37° C.) | Incorporation of three 2′F-araTTP / 2′F-araCTP (incorporation efficiency) (MMLV, 37° C.) | other results
1 | Cc1cn([C@@H]2O[C@H](COP(=O)(O)OP(=O)(O)OP(=O)(O)O)[C@@H](O)[C@@H]2F)c(=O)[nH]c1=O [2′F-araTTP, 1-(2-deoxy-2-fluoro-β-D-arabino-furanosyl)thymine 5′-triphosphate] | dTTP > 2′F-araTTP > 2′F-rUTP > UTP | +++ | Enzymatic activity during primer extension reactions (Example 2, DNA template PF22, 3x 2′F-araTTP, dCTP, MMLV, 37° C.): +++; substrate property for MMLV (second incorporations of modified triphosphates) (MMLV, DNA template PF22, compared to 2′F-rUTP and rUTP): best substrate
2 | Nc1ccn([C@H]2C[C@H](O)[C@@H](COP(=O)(O)OP(=O)(O)OP(=O)(O)O)O2)c(=O)n1 [dCTP] | dCTP~2′F-rCTP ≧ 2′F-araCTP > CTP |  | 
3 | O=c1ccn([C@@H]2O[C@H](COP(=O)(O)OP(=O)(O)OP(=O)(O)O)[C@@H](O)[C@H]2F)c(=O)[nH]1 [2′F-rUTP, 1-(2-deoxy-2-fluoro-β-D-ribo-furanosyl)uracil 5′-triphosphate, reference compound] | dTTP > 2′F-araTTP > 2′F-rUTP > UTP |  | 
4 | Nc1ccn([C@@H]2O[C@H](COP(=O)(O)OP(=O)(O)OP(=O)(O)O)[C@@H](O)[C@@H]2F)c(=O)n1 [2′F-araCTP, 1-(2-deoxy-2-fluoro-β-D-arabinofuranosyl)cytosine 5′-triphosphate] | dCTP~2′F-rCTP ≧ 2′F-araCTP > CTP | ++++ | Enzymatic activity during primer extension reactions (Example 3, DNA template PF24, 3x 2′F-araCTP, dTTP, MMLV, 37° C.): +++; premature products (MMLV-RT, DNA template PF24, after 60 mins, 37° C.): ca. 90%
5 | Cc1cn([C@H]2C[C@H](O)[C@@H](COP(=O)(O)OP(=O)(O)OP(=O)(O)O)O2)c(=O)[nH]c1=O [dTTP, reference compound] | dTTP > 2′F-araTTP > 2′F-rUTP > UTP |  | 
6 | Nc1ccn([C@@H]2O[C@H](COP(=O)(O)OP(=O)(O)OP(=O)(O)O)[C@@H](O)[C@H]2F)c(=O)n1 [2′F-rCTP, 1-(2-deoxy-2-fluoro-β-D-ribofuranosyl) cytosine 5′-triphosphate, reference compound] | dCTP~2′F-rCTP ≧ 2′F-araCTP > CTP |  | full-length product (MMLV-RT, DNA template PF24, 37° C.): ~100%
